According to the SangsterLogP compilation:

SMILES	logP
C=CCCCCCCC=C	5.7
c1ccc2c(c1)ccc1cc3c(ccc4ccccc43)cc12	6.88
Clc1cc(Cl)c(-c2c(Cl)cc(Cl)cc2Cl)c(Cl)c1	6.39
BrCC(Br)C(Br)CBr (centres undefined)	3.22
C=C(C)CC(C)(C)C	5.44
c1ccc(Cc2ccccc2)cc1	4.22
Brc1ccc(Br)s1	4.15
CC(C)CC(C)(C)C	5.83
CCCCCCCCCCCCCCCCCCCl	8.7
c1ccc(C2CCCCC2)cc1	5.54

Results, then the compound that gave them:

logP	SMILES
6.69	CCCCCCCCCC
8.92	CCCCCCCCCCCCCCCCC
5.2	CCCCC(CC)CCl (centres undefined)
3.1	CCCCCCC(=O)OC
